US12172968B1, “4-[4,4-bis(4-chlorophenyl)-2,5-dioxoimidazolidin-1-yl]butanoic acid as an antimicrobial compound” (KING FAISAL UNIVERSITY, priority 2024, dated 2024)

Assays:
Assay type in all cases: cell-based
Conditions in all cases: after 10, 20, 40 and 60 minutes at all dilutions 1:100, 1:200, 1:400, 1:800
Escherichia Coli = assay: Antimicrobial testing by agar dilution, E. Coli
Experimental: (§1) The antimicrobial properties of the 4-[4,4-bis(4-chlorophenyl)-2,5-dioxoimidazolidin-1-yl]butanoic acid were studied by the method of agar dilution. Test solutions of each compound was prepared in concentration of 1% using dimethylformamide as a solvent then they are diluted in physiological solution to obtain the final experimental dilutions 1:100, 1:200, 1:400, 1:800. The effect of these substances are compared with furacillin in a controllable study. The testing microbes used were gram positive bacteria Staphylococcus aereus, gram negative bacteria Escherichia Coli, Pseudomonas aeruginosa and Candida albicans fungi were taken. The experiments used for this survey were meat-pentonlu agar (EPA) for cultivation of bacteria and Saburo environment for fungi. Each experiment used iml of test solution on each plate 500 min. Add 2 drops of emulsified with microbes feel. All experimental samples were taken from the agar after 10, 20, 40, 60 minutes in the environment on the basis of Patrk planted. Bacteria were cultivated at a temperature of 37° C. for 1 day and the mushroom was kept in a thermostat for […] at a temperature of 28° C. in the. Then results were checked.

Staphylococcus aereus = assay: Antimicrobial testing by agar dilution, St. Aereus
Experimental: as §1

Pseudomonas aeruginosa = assay: Antimicrobial testing by agar dilution, Ps. aeruginosa
Experimental: as §1

Candida albicans = assay: Antimicrobial testing by agar dilution, Candida albicans
Experimental: as §1

Measured: inhibition activity (summary in words)

O=C(O)CCCN1C(=O)NC(c2ccc(Cl)cc2)(c2ccc(Cl)cc2)C1=O [4-[4,4-bis(4-chlorophenyl)-2,5-dioxoimidazolidin-1-yl]butanoic acid]
higher inhibition activity: all assays above
